1 compound from ChEMBL document CHEMBL4480381, “Origin and bioactivities of thiosulfinated FK228” (Medchemcomm, 2019) can be followed below.

The target of the assay is Histone deacetylase 4 (Homo sapiens, UniProt P56524). Nature of the assay: Inhibition of human recombinant C-terminal GST-tagged HDAC4 (101 to 1084 residues) expressed in baculovirus infected Sf9 insect cells after 1 hr by HDAC-Glo1/2 luminescent assay.
Chain of Histone deacetylase 4 (P56524 whole entry, the tested form may be a part): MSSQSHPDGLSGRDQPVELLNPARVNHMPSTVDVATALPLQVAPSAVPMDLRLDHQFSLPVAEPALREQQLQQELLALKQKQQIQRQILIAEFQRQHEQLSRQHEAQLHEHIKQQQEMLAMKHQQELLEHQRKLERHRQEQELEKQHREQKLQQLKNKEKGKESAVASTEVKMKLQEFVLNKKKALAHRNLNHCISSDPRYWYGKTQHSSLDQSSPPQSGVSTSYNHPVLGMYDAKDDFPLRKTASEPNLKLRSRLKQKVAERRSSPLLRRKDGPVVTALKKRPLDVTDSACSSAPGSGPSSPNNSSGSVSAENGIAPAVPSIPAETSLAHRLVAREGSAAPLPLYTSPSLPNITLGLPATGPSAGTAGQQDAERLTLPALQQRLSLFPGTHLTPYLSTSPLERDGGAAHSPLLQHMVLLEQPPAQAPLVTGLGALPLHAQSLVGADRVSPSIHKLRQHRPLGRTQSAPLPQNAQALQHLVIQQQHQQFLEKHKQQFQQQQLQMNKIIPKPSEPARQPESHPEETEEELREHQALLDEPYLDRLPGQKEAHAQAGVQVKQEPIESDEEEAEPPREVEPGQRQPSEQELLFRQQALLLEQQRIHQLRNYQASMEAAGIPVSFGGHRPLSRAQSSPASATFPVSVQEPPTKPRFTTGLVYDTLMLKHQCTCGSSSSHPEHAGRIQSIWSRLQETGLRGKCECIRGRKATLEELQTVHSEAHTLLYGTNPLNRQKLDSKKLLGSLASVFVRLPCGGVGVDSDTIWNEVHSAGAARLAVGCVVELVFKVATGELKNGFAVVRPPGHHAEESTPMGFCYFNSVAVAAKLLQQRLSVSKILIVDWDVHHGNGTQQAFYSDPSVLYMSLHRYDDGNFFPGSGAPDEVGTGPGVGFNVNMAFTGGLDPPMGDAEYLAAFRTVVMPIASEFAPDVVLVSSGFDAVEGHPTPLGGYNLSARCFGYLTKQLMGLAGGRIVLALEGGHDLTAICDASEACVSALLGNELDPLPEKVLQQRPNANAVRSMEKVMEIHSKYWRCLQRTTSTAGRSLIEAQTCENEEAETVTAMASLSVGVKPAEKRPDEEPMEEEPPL

`C/C=C1\NC(=O)[C@H]2CSSCC/C=C/[C@H](CC(=O)N[C@H](C(C)C)C(=O)N2)OC(=O)[C@H](C(C)C)NC1=O` [ROMIDEPSIN]: the IC50 was determined as 4.46 µM.

A word on the IC50: it is the point on the concentration scale where inhibition reaches its midpoint.
